# Reference: patent US20170246129A1, “COMPOSITION USING GUANIDINE COMPOUND FOR SUPPRESSING TRANSFORMING GROWTH FACTOR (TGF)-beta” (Peking University Third Hospital, priority 2016, published 2017)
# Where a name gives a salt, the structure may show the parent alone. Read-outs that look alike come from different tables or passages of the source.
# Assays:
# [1] = test system: TGFβ1 induced phosphorylated Smad3 (p-Smad3); experiment: Western blotting of TGFβ1 induced phosphorylated Smad3 in 3T3 cells; assay type: cell-based, mouse; conditions: compound 1 mmol/L premixed with TGF-β1 (5 ng/mL) for 2 h, 3T3 cells treated 30 min, FIG. 9
# Method: 2: Moroxydinehydrochloride (dissovled in ddH2O, 1 mmol/L); 3: Phenylbiguanide (dissolved in DMSO, 1 mmoL/L); 4: 1-(2,3-Dichlorophenyl) biguanide hydrochloride (dissolved in DMSO, 1 mmoL/L); 5: 1,3-Di(o-tolyl)guanidine (dissolved in DMSO, 1mmoL/L); 6: Buformin hydrochloride (dissolved in EtOH, 1 mmol/L). These compounds and TGF-β1 (5 ng/mL) were premixed for 2 h separately and then 3T3 cells were treated with the mixture for 30 min prior to sample collection. […] Bicinchoninic acid reagents were used to measure the protein concentration. Equal amounts of proteins were separated by SDS-PAGE and transferred to polyvinylidene difluoride membranes. The blots were immunoreacted with primary antibodies and secondary antibodies conjugated with horseradish peroxidase. […] GAPDH antibodies were purchased from Santa Cruz Biotechnology (Santa Cruz, Calif., USA). Protein bands were visualized by enhanced chemiluminescence detection and the intensity was quantified by use of Image-J software.
# TGF-β1/TβRII = molecular target: T1, TGF-β1/TβRII (Homo sapiens, UniProt P01137); experiment: AFM single-molecule force spectroscopy of TGF-β1-TβRII binding on HeLa cells
# T1 construct: expressed in transfected cells; host or cells: HeLa
# T1 sequence (P01137 279-390 limits assumed): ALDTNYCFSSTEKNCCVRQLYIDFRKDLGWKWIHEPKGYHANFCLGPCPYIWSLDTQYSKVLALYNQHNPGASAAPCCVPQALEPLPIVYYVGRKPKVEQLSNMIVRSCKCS
# Method: The present invention investigated the binding force and the binding probability between TGF-β1 and TβRII on live cells using AFM-based single-molecule force spectroscopy. TGF-β1-modified AFM tips (type: NP-10, Bruker, Santa Barbara, Calif., USA) were prepared as followed. The spring constants of the tips, calibrated by the thermal fluctuation method, were in the range of 0.025-0.045 N/m. The tips were first cleaned and hydroxized through the treatment with chloroform, HF acid, alkaline solution (NH4OH/H2O2/H2O) 1:1:5, v/v) and piranha solution (98% H2SO4/H2O2) 7:3, v/v), respectively, to generate Si-OH on the wafers. Then they were transferred to a solution of 1.0% (v/v) MPTMS in toluene, incubated for 2 h at room temperature, and rinsed thoroughly with toluene to be modified with —SH groups. […]
# Hela cells were transfected with the TβRII-GFP plasmid for 24 h, and the force measurements were performed on a PicoSPM II system with a PicoScan 3000 controller and a large scanner (Agilent, Santa Clara, Calif., USA). The AFM scanner was mounted on an inverted fluorescence microscope (Olympus IX71, Japan). […] All of the force curves were measured with the contact mode at room temperature using a soft cantilever (0.06 N m-1). […] The force curves were recorded using PicoScan 5 software (Molecular Imaging, Tempe, Ariz., USA) and analyzed using a program in MATLAB (MathWorks Corp., Natick, Mass., USA.).
# TβRII-GFP on HeLa cells = experiment: Single-molecule fluorescence imaging (TIRFM) of TGF-β1-induced TβRII dimerization; assay type: cell-based; conditions: TGF-β1 10 ng/mL, 15 min at 37° C., FIG. 2D
# Method: In the previous study, individual green fluorescent protein (GFP)-tagged TβRII molecules were imaged on the cell membrane by total internal reflection fluorescence microscopy (TIRFM) to study the receptor activation.
# Single molecule fluorescence imaging was performed with objective-type total internal reflection fluorescence microscopy (TIRFM) using an inverted Olympus IX71 microscope equipped with a total internal reflective fluorescence illuminator'a, 100X/1.45NA Plan Apochromat TIR objective and an intensified CCD (ICCD) camera (Pentamax EEV 512×512 FT, Roper Scientific). Hela cells were transfected with TβRII-GFP plasmid for 4 h, washed, and then imaged in the serum-free and phenol red-free MEM under the fluorescence microscopy. GFP was excited at 488-nm by an argon laser (Melles Griot, Carlsbad, Calif.). Movies of 200-300 frames were acquired for each sample at a frame rate of 10 Hz. […] To analyze single-molecule fluorescence intensity and the photobleaching steps, regions of interest for bleaching analysis were selected as followed. Firstly, the background fluorescence was subtracted from the movie acquired from the fixed cells using rolling ball method in Image J software (National Institutes of Health). […] Finally, time courses and the integrated fluorescence intensity of regions which were selected according to the method above were extracted for photobleaching analysis. […]
# [2] = persons receiving the drug therapeutically, cited from earlier work
# TGF-β1 = TGF-β1 (Homo sapiens, UniProt P01137); experiment: Surface plasmon resonance (SPR)-based assay; conditions: Biacore T200, 25° C., TGF-β1 on CM5 chip, steady-state single site binding model
# TGF-β1, sequence (P01137 279-390 limits assumed): as above
# Method: Experiments were performed at 25° C. using a Biacore T200 and the data were analyzed using Biacore T200 evaluation software 2.0 (GE Healthcare, Stockholm, Sweden). […] The steady-state values were calculated from the sensorgrams and plotted against the concentrations. The data were fit to a single site binding model to calculate the KD.
# [3] = molecular target: T2, [125I]-TGFβ1 binding to its receptor in 3T3 mouse fibroblasts (Homo sapiens, UniProt P01137); experiment: [125I]-TGFβ1 binding assay; conditions: printed as log[IC50], 50 pM [125I]-TGFβ1, 4 h at 4° C., four independent experiments, read-out: log[IC50] of [125I]-TGFβ1 binding inhibition (converted)
# T2 construct: endogenous in cells; host or cells: 3T3 mouse fibroblasts
# T2 sequence (P01137 279-390 limits assumed): as above
# Method: 3T3 mouse fibroblasts were seeded in a 24 well-plate and cultured in DMEM supplemented with 10% FBS and antibiotics (100 U/mL penicillin-streptomycin). […] After 4 h at 4° C., the medium was removed and cells were washed five times with ice-cold binding buffer (50 mM HEPES, 128 mM NaCl, 5 mM KCl, 5 mM MgSO4, and 1.2 mM CaCl2). The cells were then solubilized using binding buffer containing 1% Triton X-100 and the radioactivity was measured. Non-specific binding was determined in the presence of an excess (10 nM) of unlabeled TGFβ1.
smiles,measurement,setting,value
"Cl.N=C(NN)NN [1,3-Diaminoguanidine monohydrochloride]",effect on p-Smad3 induced by TGFβ1,[1],no effect
"CCCCNC(=N)NC(=N)N [buformin hydrochloride, Buformin hydrochloride]",effect on p-Smad3 induced by TGFβ1,[1],attenuate
"Cl.N=C(N)NC(=N)Nc1cccc(Cl)c1Cl [1-(2,3-Dichlorophenyl) biguanide hydrochloride]",effect on p-Smad3 induced by TGFβ1,[1],no effect
"CN(C)C(=N)N=C(N)N [metformin, metformin hydrochloride]",binding force of TGF-β1 with TβRII,"TGF-β1/TβRII; 50 μM, control 49.5±1.3, P>0.05",49.3±1.4 pN
same,binding probability of TGF-β1 and TβRII,"TGF-β1/TβRII; metformin 50 μM, control 21.7±3.5%",9.9±1.2%
same,percentage of TβRII dimers induced by TGF-β1,TβRII-GFP on HeLa cells,inhibited the percentage of dimers induced by TGF-β1 in a dose-dependent manner
same,Blood or plasma concentrations,[2],1 to 4 µg/mL
same,Blood or plasma concentrations,[2]; conversion of μg/mL,6 to 24 µM
same,Kd,TGF-β1,15.9 µM
same,IC50,[3],69.2 µM
"Cc1ccccc1NC(=N)Nc1ccccc1C [1,3-Di(o-tolyl)guanidine]",effect on p-Smad3 induced by TGFβ1,[1],attenuate
Cl.N=C(N=C(N)N)N1CCOCC1 [moroxydinehydrochloride],effect on p-Smad3 induced by TGFβ1,[1],no effect
